Experimental data from patent US20100166727A1, “S-Adenosylmethionine And Methylthioadensosine In Chemoprevention And Treatment Of Colon Polyps And Cancer” (UNIVERSITY OF SOUTHERN CALIFORNIA, priority 2007, published 2010).

Columns and labels:
Type in all cases: cell-based, human
[1] = system: ornithine decarboxylase (ODC); assay: ODC expression by real-time PCR in HT-29 cells; conditions: 6 hrs, mitogen 100 ng/ml
[2] = system: MAT2A; assay: MAT2A mRNA levels by real-time PCR in RKO cells; conditions: for MAT2A mRNA levels after growth factor / MAT2A expression: RKO cells; for MAT2A mRNA levels after growth factor: growth factor 100 ng/ml
Method: (§1) HT-29 and RKO cells were obtained from the Cell Culture Core of the USC Liver Disease Research Center and grown according to instructions provided by the American Type Culture Collection (ATCC, Rockville, Md.). Prior to treatment with growth factors, SAMe or MTA, medium was changed to 0.1% FBS overnight.
(§2) RNA interference (RNAi) experiments were performed using Lipofectamine RNAiMax (Invitrogen) according to the manufacturer's instructions. Small interfering RNA (siRNA) oligonucleotides for MAT2A and scrambled siRNA were synthesized by the USC Norris Comprehensive Cancer Center Microchemical Core Laboratory, and annealed to form duplexes. Stealth RNAi for MAT2A and Stealth RNAi negative control duplexes were synthesized by Invitrogen (Carlsbad, Calif.). The following siRNA sequences were used: si-MAT2A #1, 5′-[…]-3′ (sense) and 5′-[…]-3′ (antisense); si-control with scrambled sequence (negative control siRNA having no perfect matches to known human genes), 5′-[…]dTdT-3′ (sense) and 5% […]dTdT-3′ (antisense); stealth RNAi-MAT2A #5, 5′-[…]-3′ (sense) and 5′-[…]-3′ (antisense). Transfection was allowed to proceed 72 hours before collection for different assays.
(§3) Total RNA was isolated by the EZgeno total RNA isolation kit (Genemega, San Giego, Calif.), and subjected to reverse transcription (RT) by using M-MLV Reverse transcriptase (Invitrogen). 2 μl of RT product was subjected to quantitative real-time PCR analysis. The primers and TaqMan probes for MAT2A, MAT2β and Universal PCR Master Mix were purchased from ABI (Foster City, Calif.). Hypoxanthine phosphoribosyl-transferase 1 (HPRT1) and ubiquitin C (UBC) were used as housekeeping genes (48). The thermal profile consisted of 1 cycle at 95° C. for 15 minutes followed by 40 cycles at 95° C. for 15 seconds and at 60° C. for 1 minute. The expression of MAT2A and MAT2β was checked by normalizing the Ct of MAT2A and MAT2β to that of the control housekeeping gene (HPRT1 or UBC) (49). The delta Ct obtained was used to find the relative expression of MAT genes according to the formula: Relative expression=2·^ΔCt, where ΔCt=ΔCt of MAT genes in colon cancer or treated cells—ΔCt of MAT genes in normal colon or control cells.

[3] = system: HT-29 cells; assay: Polyamine levels in HT-29 cells; conditions: 6 hrs, mitogen 100 ng/ml
Method: as §1
(§4) Cellular SAMe and MTA levels were measured (51) and polyamine levels were determined (52).

[4] = system: HT-29 cells; assay: Cellular SAMe and MTA levels in HT-29 cells; conditions: mitogen 100 ng/ml
Method: as §1, §4

[5] = system: spermine synthase (SPM syn); assay: SPM syn expression by real-time PCR in HT-29 cells; conditions: 6 hrs, mitogen 100 ng/ml
[6] = system: SPD syn; assay: SPD syn expression by real-time PCR in HT-29 cells; conditions: 6 hrs, mitogen 100 ng/ml
[7] = system: MAT2A; assay: MAT2A mRNA levels by real-time PCR in HT-29 cells; conditions: for MAT2A mRNA levels after growth factor: growth factor 100 ng/ml
Method: as §1
as §2, with “Transfection was allowed to proceed 72 hours before collection for different assays.” left out
as §3

[8] = system: RKO cells; assay: Apoptosis in RKO cells (HOECHST staining, Annexin V)
Method: Apoptosis was assessed by HOECHST staining (34). Briefly, RKO cells were grown on coverslips and treated with RNAi#1 for 24 hrs and cells were fixed with paraformaldehyde and stained with 8 μg/ml HOECHST 33258 dye for 30 min. Cells with bright, fragmented, condensed nuclei were identified as apoptotic cells using the Nikon Eclipse TE300 fluorescent microscope. At least 5 random fields (at ×300) were counted.
In these experiments the total treatment duration was limited to 16 hrs to avoid the apoptotic effect. […] Apoptosis was measured by Hoechst staining or Annexin V and propidium iodide staining on flow cytometry.

[9] = system: HT-29 cells; assay: Cell growth by MTT assay in HT-29 cells
Method: Cell growth was measured by the cell growth determination kit MTT from Sigma (St. Louis, Mo.). The MTT assay measures the cell proliferation rate and reduction in cell viability. HT-29 or RKO cells (1×10^4/well) were plated in 96-well plates and treated with growth factors (all 100 ng/ml), SAMe (0.5 to 5 mM), MTA (0.5 to 1 mM), alone or in combination for 16 hrs in serum-free medium. To determine the effect of MAT2A RNAi on mitogen-induced changes in MTT, cells were first treated with RNAi for 48 hrs followed by mitogen treatment for another 24 hrs.

EGF: Epidermal growth factor, mitogen was tested, and the ODC expression [1] was 1.5 ± 0.07 fold of control, the “MAT2A mRNA levels after growth factor” value [2] was “doubled” and the Putrescine [3] was 0.32 ± 0.01 nmol/mg protein. For the same substance, the Spermidine [3] was 2.19 ± 0.23 nmol/mg protein, the Spermine [3] was 12.55 ± 2.04 nmol/mg protein and the MTA level ([4]; 6 hrs) was 0.054 ± 0.001 nmol/mg protein. For the same substance, the SAMe level ([4]; 6 hrs) was 0.54 ± 0.04 nmol/mg protein, the MTA level ([4]; 16 hrs) was 0.061 ± 0.010 nmol/mg protein and the SAMe level ([4]; 16 hrs) was 0.63 ± 0.06 nmol/mg protein. The SPM syn expression [5] was 1.1 ± 0.02 fold of control, the SPD syn expression [6] was 1.7 ± 0.08 fold of control and the “MAT2A mRNA levels after growth factor” value ([7]; HT-29 cells) was “doubled”.

For “IGF-1: insulin-like growth factor-1, mitogen”, the ODC expression [1] was 1.5 ± 0.08 fold of control, the “MAT2A mRNA levels after growth factor” value [2] was “doubled” and the Putrescine [3] was 0.22 ± 0.02 nmol/mg protein. The Spermidine [3] was 2.82 ± 0.09 nmol/mg protein, the Spermine [3] was 12.55 ± 2.50 nmol/mg protein and the MTA level ([4]; 6 hrs) was 0.054 ± 0.003 nmol/mg protein. The MTA level ([4]; 16 hrs) was 0.087 ± 0.025 nmol/mg protein, the SAMe level ([4]; 16 hrs) was 1.03 ± 0.03 nmol/mg protein and the SPM syn expression [5] was 1.1 ± 0.03 fold of control. The SPD syn expression [6] was 2.2 ± 0.20 fold of control and the “MAT2A mRNA levels after growth factor” value ([7]; HT-29 cells) was “doubled”.

“RNAi#1: siRNA against MAT2A, sense 5′-ACACAUUGGAUAUGAUGAUTT-3′ (antisense AUCAUCAUAUCCAAUGUGUTT; chemistry not given here) [reference compound]” was tested, and the “lowering of MAT2A expression” value [2] was 90%, the MAT2A expression ([2]; 24 hrs) was 25 % of scrambled control and the MAT2A expression ([2]; 48 hrs) was 9 % of scrambled control. For the same substance, the apoptosis ([8]; 24 hrs of RNAi treatment) was “significant increase in apoptosis” and the apoptosis ([8]; 48 hrs of RNAi treatment) was “more pronounced”.

“RNAi#5: stealth RNAi against MAT2A, sense 5′-CCACCUACAGCCAAGUGGCAGAUUU-3′ (antisense AAAUCUGCCACUUGGCUGUAGGUGG; chemistry not given here) [reference compound]” was tested, and the apoptosis ([8]; after 24 hrs) was “No apoptosis was detected”, the “lowering of MTT value” ([9]; HT-29 or RKO cells, RNAi 48 hrs then another 24 hrs) was “about 30%” and the “mitogenic effect of leptin, IGF-1 and EGF” value ([9]; RNAi 48 hrs, then growth factors 24 hrs) was “blocked the ability of leptin, IGF-1 and EGF to fully exert their mitogenic effect”. The “MAT2A mRNA level” value ([7]; HT-29 cells, RNAi 48 hrs) was 50 % of control and the “lowering of MAT2A expression” value ([7]; at 72 hrs) was 50%.
